{"source": "patent US20050033056A1", "about": "“Hydroxylated indole derivatives and uses thereof” (priority 2001, published 2005)", "key": {"CYP2C19/2C8/2C9": {"test_system": "CYP2C19/2C8/2C9", "experiment": "CYP induction in primary human hepatocytes, Western immunoblotting: CYP2C19/2C8/2C9", "type": "cell-based", "settings": "10 or 50 μM for 72 hours; hepatocytes from three donors", "protocol": "(§1) Upon receiving a primary culture of human hepatocytes in 6-well plates, the culture medium containing streptomycin/penicillin was refreshed (2 ml/well). […] The culture medium and testing compounds were replenished every 24 hours.\n(§2) At the end of the treatment, the cells were harvested into 1 mL of phosphate-buffered saline (PBS) after washing twice. The cells were precipitated by centrifugation, and were resuspended in PBS (approximately 50 μL).\n(§3) The membrane was blocked by 5% non-fat dried milk (NFDM) blotting buffer (PBS containing 0.05% Tween 20) at 4° C. overnight. […] The membrane was rinsed six times (10 minutes each time) with the blotting buffer, and exposed to 1:10,000 diluted secondary antibodies labeled with horseradish peroxidase for 1 hour at room temperature. After being extensively rinsed with the blotting buffer, the membrane was exposed to the substrate of peroxidase (enhanced chemiluminescence reagent). CYP proteins were detected by […] using an X-ray developer."}, "CYP1A2": {"target": "T1, CYP1A2 (Homo sapiens, UniProt P05177)", "T1 construct": "tissue Gentest Corp. (Woburn, Mass.); host or cells: pooled human liver microsomes", "T1 sequence (P05177 1-516)": "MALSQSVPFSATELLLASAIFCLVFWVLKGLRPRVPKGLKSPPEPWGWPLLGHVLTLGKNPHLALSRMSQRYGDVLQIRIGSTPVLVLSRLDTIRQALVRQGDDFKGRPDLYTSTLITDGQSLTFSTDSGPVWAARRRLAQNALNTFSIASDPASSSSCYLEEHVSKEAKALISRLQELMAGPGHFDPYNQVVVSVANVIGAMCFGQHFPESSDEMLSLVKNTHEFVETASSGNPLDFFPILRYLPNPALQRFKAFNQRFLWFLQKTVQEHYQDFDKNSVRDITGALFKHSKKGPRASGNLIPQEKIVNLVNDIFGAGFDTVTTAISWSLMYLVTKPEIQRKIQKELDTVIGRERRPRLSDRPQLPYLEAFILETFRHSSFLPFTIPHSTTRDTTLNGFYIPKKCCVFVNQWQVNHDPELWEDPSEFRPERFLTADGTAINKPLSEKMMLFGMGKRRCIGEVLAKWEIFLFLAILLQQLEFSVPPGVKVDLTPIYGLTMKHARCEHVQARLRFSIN", "experiment": "CYP inhibition in HLM: R-warfarin 6-hydroxylation", "type": "in vitro ADME", "settings": "10 or 50 μM", "protocol": "(§4) The incubations were carried out in test tubes (12.0×75 mm). The incubation mixtures (250 μL) contained 0.5 mg of HLM protein, 50 (CYP1A2 and CYP2E1) or 25 (CYP2C9, CYP2C19, CYP2D6 and CYP3A4) pmol of recombinant human CYPs, Compound 1 (10 or 50 μM), probe substrate (R—, S-warfarin, chlorzoxazone, S-mephenyloin, or bufuralol) at different concentrations, and 0.5 mg of NADPH in 50 mM Tris buffer containing 15 mM MgCl2 (pH 7.4). Compound 1 was added to the reaction mixture 5 minutes prior to the addition of the probe substrate. […]\n(§5) The quantification was based on the calibration curves, and the quality control (QC) samples were applied to ensure the quality of the experiments. […]\n(§6) 1. CYP1A2/2C9/3A4-mediated warfarin 6-, 7-, 8-, and 10-hydroxylation (Zhang et al., Drug Metab. Dispos. 23:1339-1346, 1995; Rettie et al., Chem. Res. Toxicol. 5:54-59, 1992; Brian et al., Biochemistry 29:11280-11292, 1990): Hewlett Packard 1100 HPLC system (Waldbronn, Germany) comprised a binary pump, an autosampler, a column compartment unit, a photodiode array detector (PDA), and a fluorescence detector. […] The warfarin metabolites, 6-, 8-, and 10-hydroxywarfarin, were monitored by UV at 313 nm, and 7-hydroxywarfarin by fluorescence at Ex320 nm/Em380 nm. […]"}, "CYP3A4": {"target": "CYP3A4 (Homo sapiens, UniProt P08684)", "sequence (P08684 whole entry)": "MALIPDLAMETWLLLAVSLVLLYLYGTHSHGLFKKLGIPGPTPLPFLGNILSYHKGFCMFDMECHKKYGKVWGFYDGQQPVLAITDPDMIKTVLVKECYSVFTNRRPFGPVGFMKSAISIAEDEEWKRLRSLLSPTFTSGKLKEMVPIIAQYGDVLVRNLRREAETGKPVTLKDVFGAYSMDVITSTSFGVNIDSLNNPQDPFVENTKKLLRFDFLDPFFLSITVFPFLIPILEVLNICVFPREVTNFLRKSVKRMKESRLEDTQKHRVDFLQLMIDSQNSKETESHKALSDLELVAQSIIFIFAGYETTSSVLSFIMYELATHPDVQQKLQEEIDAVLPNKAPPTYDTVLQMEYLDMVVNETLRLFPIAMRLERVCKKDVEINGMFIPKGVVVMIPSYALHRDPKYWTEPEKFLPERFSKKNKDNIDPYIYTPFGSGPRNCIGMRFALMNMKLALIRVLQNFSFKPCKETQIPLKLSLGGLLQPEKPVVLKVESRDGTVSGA", "experiment": "CYP inhibition in HLM: R-warfarin 10-hydroxylation", "type": "in vitro ADME", "set-up": "tissue Gentest Corp. (Woburn, Mass.); host or cells: pooled human liver microsomes", "settings": "10 or 50 μM", "protocol": "as §4, §5, §6"}, "CYP3A4/5": {"test_system": "CYP3A4/5", "experiment": "CYP induction in primary human hepatocytes, Western immunoblotting: CYP3A4/5", "type": "cell-based", "settings": "10 or 50 μM for 72 hours; hepatocytes from three donors", "protocol": "as §1, §2, §3"}, "5-HT2 receptor": {"target": "5-HT2 receptor", "settings": "background statement, see WO 98/43956 and EP 0 976 732 A1; cited from earlier work"}}}
{"smiles": "CNC(=O)Cc1ccc2ccn(C3CCN(CCc4ccccc4F)CC3)c2c1", "note": "[Compound 1, N-methyl-[1-[1-(2-fluorophenethyl)piperidine-4-yl]-1H-indol-6-yl] acetamide]", "values": [{"measurement": "expression of CYP2C19/2C8/2C9 (Western immunoblotting)", "setting": "CYP2C19/2C8/2C9", "value": "did not increase"}, {"measurement": "inhibitory effect on CYP1A2 activity (in words)", "setting": "CYP1A2", "value": "no inhibitory effect"}, {"measurement": "inhibitory effect on CYP3A4 activity (in words)", "setting": "CYP3A4", "value": "no inhibitory effect"}, {"measurement": "expression of CYP3A4/5 (Western immunoblotting)", "setting": "CYP3A4/5", "value": "did not increase"}, {"measurement": "IC50, binding to 5-HT2 receptor", "setting": "5-HT2 receptor", "value": "low nanomolar"}]}
